Source: ChEMBL document CHEMBL1131247, “Substituted naphthofurans as hallucinogenic phenethylamine-ergoline hybrid molecules with unexpected muscarinic antagonist activity” (J Med Chem, 1998)
Active and inactive are the calls of the source. No cut-off for these calls is given here.

What was measured:
[1] = molecular target: T1, Muscarinic acetylcholine receptor M2 (Rattus norvegicus) (UniProt P10980)
T1 sequence (whole entry): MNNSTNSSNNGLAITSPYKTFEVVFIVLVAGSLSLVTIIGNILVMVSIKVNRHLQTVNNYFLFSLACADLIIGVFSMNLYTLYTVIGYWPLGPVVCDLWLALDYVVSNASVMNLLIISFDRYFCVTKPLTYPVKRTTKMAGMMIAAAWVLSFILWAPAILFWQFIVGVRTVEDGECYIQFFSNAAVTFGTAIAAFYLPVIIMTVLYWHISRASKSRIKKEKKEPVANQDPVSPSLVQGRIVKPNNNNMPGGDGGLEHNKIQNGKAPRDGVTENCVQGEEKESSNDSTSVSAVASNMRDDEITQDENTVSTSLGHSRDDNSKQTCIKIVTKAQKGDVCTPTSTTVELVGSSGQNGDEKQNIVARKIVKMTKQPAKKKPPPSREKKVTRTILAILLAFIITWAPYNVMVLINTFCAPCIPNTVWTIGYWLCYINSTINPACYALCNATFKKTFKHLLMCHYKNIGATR

[2] = molecular target: T2, Muscarinic acetylcholine receptor M4 (Rattus norvegicus) (UniProt P08485)
T2 sequence (whole entry): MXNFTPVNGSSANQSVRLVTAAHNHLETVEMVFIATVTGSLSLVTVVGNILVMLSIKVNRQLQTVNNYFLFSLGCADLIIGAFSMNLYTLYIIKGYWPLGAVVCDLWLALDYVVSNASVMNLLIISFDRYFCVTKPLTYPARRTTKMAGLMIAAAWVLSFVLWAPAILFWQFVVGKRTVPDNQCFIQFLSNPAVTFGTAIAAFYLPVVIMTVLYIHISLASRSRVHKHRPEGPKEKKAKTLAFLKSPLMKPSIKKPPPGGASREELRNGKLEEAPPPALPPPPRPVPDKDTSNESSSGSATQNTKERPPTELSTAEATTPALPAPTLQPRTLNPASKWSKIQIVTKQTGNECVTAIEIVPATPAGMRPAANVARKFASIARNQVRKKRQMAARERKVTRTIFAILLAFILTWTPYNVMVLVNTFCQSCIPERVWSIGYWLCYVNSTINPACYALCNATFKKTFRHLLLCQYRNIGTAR

[3] = molecular target: T3, Muscarinic acetylcholine receptor M5 (Rattus norvegicus) (UniProt P08911)
T3 sequence (whole entry): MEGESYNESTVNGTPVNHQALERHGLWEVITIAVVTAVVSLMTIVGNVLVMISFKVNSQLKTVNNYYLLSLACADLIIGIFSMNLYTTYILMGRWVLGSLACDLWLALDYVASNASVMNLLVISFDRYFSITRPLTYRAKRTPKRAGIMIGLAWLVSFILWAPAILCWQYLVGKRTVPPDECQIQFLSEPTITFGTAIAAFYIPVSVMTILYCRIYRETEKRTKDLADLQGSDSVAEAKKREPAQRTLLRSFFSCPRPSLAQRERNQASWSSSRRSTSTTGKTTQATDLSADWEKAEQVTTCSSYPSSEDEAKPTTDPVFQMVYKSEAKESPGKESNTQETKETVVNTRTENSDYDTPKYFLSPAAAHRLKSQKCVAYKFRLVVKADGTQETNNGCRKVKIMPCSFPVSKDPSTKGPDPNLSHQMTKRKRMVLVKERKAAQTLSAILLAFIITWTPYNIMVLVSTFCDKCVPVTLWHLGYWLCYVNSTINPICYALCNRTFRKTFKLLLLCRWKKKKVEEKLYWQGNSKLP

[4] = molecular target: T4, Muscarinic acetylcholine receptor M1 (Mus musculus) (UniProt P12657)
T4 sequence (whole entry): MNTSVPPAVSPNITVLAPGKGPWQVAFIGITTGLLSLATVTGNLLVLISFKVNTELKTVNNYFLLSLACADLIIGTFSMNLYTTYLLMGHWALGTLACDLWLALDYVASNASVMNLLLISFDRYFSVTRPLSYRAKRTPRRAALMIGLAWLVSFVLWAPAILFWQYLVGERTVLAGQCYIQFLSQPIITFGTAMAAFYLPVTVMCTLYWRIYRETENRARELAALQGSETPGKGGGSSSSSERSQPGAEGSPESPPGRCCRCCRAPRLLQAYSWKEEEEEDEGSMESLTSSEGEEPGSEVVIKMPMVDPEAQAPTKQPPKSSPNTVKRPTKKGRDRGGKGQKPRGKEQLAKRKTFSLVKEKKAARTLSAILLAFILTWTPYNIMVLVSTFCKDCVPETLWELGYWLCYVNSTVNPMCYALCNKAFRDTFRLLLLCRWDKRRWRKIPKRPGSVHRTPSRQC

[5] = molecular target: Muscarinic acetylcholine receptor M3 (Rattus norvegicus) (UniProt P08483)
[6] = molecular target: T5, 5-hydroxytryptamine receptor 2A (Homo sapiens, UniProt P28223); assay: Binding ability of compound at cloned human 5-hydroxytryptamine 2A receptor using [125 I]DOI as radioligand
[7] = molecular target: T6, 5-hydroxytryptamine receptor 2B (Homo sapiens, UniProt P41595); assay: Binding ability of compound at cloned human 5-hydroxytryptamine 2B receptor using [3H]- rauwolscine as radioligand
[8] = molecular target: T6, 5-hydroxytryptamine receptor 2B; assay: Binding ability of compound at cloned human 5-hydroxytryptamine 2B receptor using [3H]5-HT 2B as radioligand
[9] = molecular target: 5-hydroxytryptamine receptor 2A (Rattus norvegicus, UniProt P14842); assay: Affinity at [3H]ketanserin-labeled 5-hydroxytryptamine 2A receptor in rat brain homogenate was determined; assay type: tissue-based
[10] = molecular target: T7, 5-hydroxytryptamine receptor 2C (Homo sapiens, UniProt P28335); assay: Binding ability of compound at cloned human 5-hydroxytryptamine 2C receptor using [125 I]DOI as radioligand
T7 sequence (P28335 whole entry): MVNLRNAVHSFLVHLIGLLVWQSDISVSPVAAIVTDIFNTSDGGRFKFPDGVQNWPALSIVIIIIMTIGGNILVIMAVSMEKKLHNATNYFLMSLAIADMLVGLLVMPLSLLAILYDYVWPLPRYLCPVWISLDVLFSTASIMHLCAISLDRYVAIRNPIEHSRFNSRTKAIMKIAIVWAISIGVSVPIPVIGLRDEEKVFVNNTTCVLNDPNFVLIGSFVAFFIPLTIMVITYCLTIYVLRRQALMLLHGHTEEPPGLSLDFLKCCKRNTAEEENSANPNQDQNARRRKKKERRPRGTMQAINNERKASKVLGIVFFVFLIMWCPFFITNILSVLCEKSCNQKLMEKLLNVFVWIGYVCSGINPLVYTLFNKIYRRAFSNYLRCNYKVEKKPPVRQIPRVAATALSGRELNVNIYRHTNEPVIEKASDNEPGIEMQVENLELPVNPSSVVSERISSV

[11] = molecular target: T7, 5-hydroxytryptamine receptor 2C; assay: Binding ability of compound at cloned human 5-hydroxytryptamine 2C receptor using [3H]- mesulergine as radioligand
[12] = tested on: Rattus norvegicus; assay: Percentage of animals failing to emit 50 presses on either lever within the 15-min test period in rat at 2.92 mg/kg (8 umol/kg); assay type: functional
[13] = tested on: Rattus norvegicus; assay: Percentage of animals failing to emit 50 presses on either lever within the 15-min test period in rat at 5.84 mg/kg (16 umol/kg); assay type: functional
[14] = tested on: Rattus norvegicus; assay: Percentage of animals failing to emit 50 presses on either lever within the 15-min test period in rat at 0.365 mg/kg (1 uM/kg); assay type: functional
[15] = tested on: Rattus norvegicus; assay: Percentage of animals failing to emit 50 presses on either lever within the 15-min test period in rat at 0.78 mg/kg(2 uM/kg); assay type: functional
[16] = tested on: Rattus norvegicus; assay: Percentage of animals failing to emit 50 presses on either lever within the 15-min test period in rat at 1.46 mg/kg (4 umol/kg); assay type: functional
[17] = organism: Rattus norvegicus; assay: (§1) Effective dose for LSD-like behavioral effect in rats; Not significant; assay type: functional, organism-based
[18] = organism: Rattus norvegicus; assay: as §1; assay type: functional, organism-based; remark: listed apart in the source
[19] = tested on: Rattus norvegicus; assay: Percentage of animal emitting 50 presses on the LSD appropriate lever during the test period in rat at 0.365 mg/kg (1 uM/kg); assay type: functional
[20] = organism: Rattus norvegicus; assay: Percentage of animals emitting 50 presses on the LSD appropriate lever during the test period; assay type: functional
[21] = tested on: Rattus norvegicus; assay: Percentage of animals emitting 50 presses on the LSD appropriate lever during the test period in rat at 0.78 mg/kg(2 uM/kg); assay type: functional
[22] = tested on: Rattus norvegicus; assay: Percentage of animals emitting 50 presses on the LSD appropriate lever during the test period in rat at 1.46 mg/kg (4 umol/kg); assay type: functional
[23] = tested on: Rattus norvegicus; assay: Percentage of animals emitting 50 presses on the LSD appropriate lever during the test period in rat at 5.84 mg/kg (16 umol/kg); assay type: functional
[24] = molecular target: T5, 5-hydroxytryptamine receptor 2A; assay: Binding ability of compound at cloned human 5-hydroxytryptamine 2A receptor using [3H]ketanserin as radioligand
[25] = molecular target: T8, 5-hydroxytryptamine receptor 1A (Rattus norvegicus, UniProt P19327); assay: Affinity at [3H]8-OH-DPAT-labeled 5-hydroxytryptamine 1A receptor in rat brain homogenate was determined; assay type: tissue-based
T8 sequence (P19327 whole entry): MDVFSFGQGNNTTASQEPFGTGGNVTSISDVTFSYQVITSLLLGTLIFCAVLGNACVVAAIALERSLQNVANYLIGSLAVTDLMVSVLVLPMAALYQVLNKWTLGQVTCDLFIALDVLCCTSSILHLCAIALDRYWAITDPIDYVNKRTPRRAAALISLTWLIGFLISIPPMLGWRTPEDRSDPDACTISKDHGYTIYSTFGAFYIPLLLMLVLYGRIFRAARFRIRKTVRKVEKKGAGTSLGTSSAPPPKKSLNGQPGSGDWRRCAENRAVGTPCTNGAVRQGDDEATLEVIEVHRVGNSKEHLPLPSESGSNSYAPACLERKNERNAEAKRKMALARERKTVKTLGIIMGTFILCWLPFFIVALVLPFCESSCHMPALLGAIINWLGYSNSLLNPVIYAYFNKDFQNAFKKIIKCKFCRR

[26] = organism: Rattus norvegicus; assay: Effective dose for LSD-like behavioral effect in rats; assay type: functional
[27] = tested on: Rattus norvegicus; assay: Percentage of animals failing to emit 50 presses on either lever within the 15-min test period in rat at 5.84 mg/kg (16 uM/kg); assay type: functional
[28] = tested on: Rattus norvegicus; assay: Percentage of animals failing to emit 50 presses on either lever within the 15-min test period in rat at 0.78 mg/kg (2 umol/kg); assay type: functional
[29] = tested on: Rattus norvegicus; assay: Percentage of animals failing to emit 50 presses on either lever within the 15-min test period in rat at 1.46 mg/kg (4 uM/kg); assay type: functional
[30] = tested on: Rattus norvegicus; assay: Percentage of animals failing to emit 50 presses on either lever within the 15-min test period in rat at 2.92 mg/kg (8 uM/kg); assay type: functional

T5 sequence (P28223 whole entry): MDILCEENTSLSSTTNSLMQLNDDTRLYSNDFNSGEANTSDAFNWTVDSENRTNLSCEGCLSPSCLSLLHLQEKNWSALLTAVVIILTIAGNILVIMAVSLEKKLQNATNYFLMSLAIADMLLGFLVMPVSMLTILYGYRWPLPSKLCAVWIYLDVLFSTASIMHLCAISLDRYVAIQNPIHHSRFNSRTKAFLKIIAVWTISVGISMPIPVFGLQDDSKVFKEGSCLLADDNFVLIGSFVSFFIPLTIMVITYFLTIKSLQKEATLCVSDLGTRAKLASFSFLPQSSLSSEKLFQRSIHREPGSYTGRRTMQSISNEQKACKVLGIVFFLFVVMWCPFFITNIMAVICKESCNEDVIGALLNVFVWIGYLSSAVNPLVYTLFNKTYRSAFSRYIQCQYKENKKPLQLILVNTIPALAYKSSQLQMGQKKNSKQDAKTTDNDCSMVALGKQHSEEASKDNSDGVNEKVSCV
Sequence of Muscarinic acetylcholine receptor M3 (Rattus norvegicus) (P08483 whole entry, looked up): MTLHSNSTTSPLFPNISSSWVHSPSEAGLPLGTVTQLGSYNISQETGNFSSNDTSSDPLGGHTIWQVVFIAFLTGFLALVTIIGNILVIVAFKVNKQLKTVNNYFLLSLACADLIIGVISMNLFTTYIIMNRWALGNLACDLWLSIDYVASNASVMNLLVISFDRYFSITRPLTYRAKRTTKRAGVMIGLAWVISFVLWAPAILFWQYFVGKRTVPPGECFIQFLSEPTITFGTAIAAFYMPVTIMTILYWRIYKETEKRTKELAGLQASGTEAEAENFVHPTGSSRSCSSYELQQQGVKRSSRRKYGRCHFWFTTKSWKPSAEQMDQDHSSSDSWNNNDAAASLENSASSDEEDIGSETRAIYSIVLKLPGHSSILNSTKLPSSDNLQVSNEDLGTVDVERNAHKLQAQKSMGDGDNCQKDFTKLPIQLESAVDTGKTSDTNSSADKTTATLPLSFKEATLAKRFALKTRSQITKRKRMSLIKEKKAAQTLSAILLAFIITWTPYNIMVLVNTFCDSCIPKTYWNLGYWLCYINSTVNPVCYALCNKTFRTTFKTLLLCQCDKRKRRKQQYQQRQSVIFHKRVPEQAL
T6 sequence (P41595 whole entry): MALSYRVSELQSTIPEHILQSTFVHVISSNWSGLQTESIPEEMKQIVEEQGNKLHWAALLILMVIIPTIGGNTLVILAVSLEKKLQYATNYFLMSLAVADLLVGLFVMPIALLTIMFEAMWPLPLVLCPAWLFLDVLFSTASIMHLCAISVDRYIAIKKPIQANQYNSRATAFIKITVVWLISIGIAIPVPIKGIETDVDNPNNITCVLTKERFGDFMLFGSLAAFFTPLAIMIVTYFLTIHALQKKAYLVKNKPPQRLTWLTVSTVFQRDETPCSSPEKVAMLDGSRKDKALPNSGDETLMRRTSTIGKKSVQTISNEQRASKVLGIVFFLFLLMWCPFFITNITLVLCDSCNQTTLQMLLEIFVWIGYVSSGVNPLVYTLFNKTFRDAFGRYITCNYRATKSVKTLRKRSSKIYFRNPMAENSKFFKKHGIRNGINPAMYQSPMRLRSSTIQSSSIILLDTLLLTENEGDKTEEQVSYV
Sequence of 5-hydroxytryptamine receptor 2A (Rattus norvegicus, UniProt P14842) (P14842 whole entry): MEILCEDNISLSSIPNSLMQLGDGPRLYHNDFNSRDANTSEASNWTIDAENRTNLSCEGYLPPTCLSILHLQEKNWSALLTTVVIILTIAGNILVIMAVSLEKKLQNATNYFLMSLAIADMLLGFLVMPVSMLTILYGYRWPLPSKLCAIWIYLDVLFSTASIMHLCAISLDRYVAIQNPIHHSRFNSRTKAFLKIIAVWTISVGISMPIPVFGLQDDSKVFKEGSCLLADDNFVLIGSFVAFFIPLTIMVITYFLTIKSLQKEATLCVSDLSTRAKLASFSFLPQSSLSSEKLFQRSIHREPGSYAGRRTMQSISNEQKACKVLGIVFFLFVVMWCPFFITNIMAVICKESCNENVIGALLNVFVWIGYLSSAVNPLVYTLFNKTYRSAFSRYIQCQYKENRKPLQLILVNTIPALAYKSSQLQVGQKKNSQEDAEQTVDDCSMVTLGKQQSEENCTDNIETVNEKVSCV

SMILES: COc1ccc2c3c1C[C@H](N)C[C@@H]3CO2
- K 0.5 [1]: 33400 nM
- K 0.5 [2]: 240 nM
- K 0.5 [3]: 236 nM
- K 0.5 [4]: 149 nM
- K 0.5 [5]: 129 nM

SMILES: COc1cc(Br)c2c3c1C[C@H](N)C[C@@H]3CO2
- Ki [6]: 13 nM
- Ki [7]: 255 nM
- Ki [8]: 263 nM
- Ki [9]: 1050 nM
- Ki [10]: 5.96 nM
- Ki [11]: 89.6 nM
- D [12]: 0%
- D [13]: 15%
- D [14]: 0%
- D [15]: 0%
- D [16]: 0%
- ED50 [17]: inactive
- ED50 [18]: inactive
- SDL [19]: 0%
- SDL [20]: 33%
- SDL [21]: 0%
- SDL [22]: 10%
- SDL [23]: 44%
- Ki [24]: 240 nM
- K 0.5 [1]: 41 nM
- K 0.5 [2]: 30 nM
- K 0.5 [3]: 33 nM
- K 0.5 [4]: 20 nM
- K 0.5 [5]: 12 nM

SMILES: COc1cc(C[C@@H](C)N)c(OC)cc1Br
- Ki [25]: 6100 nM
- ED50 [26]: 1.12 mg/kg

SMILES: COc1cc(Br)c2c3c1C[C@H](N)C[C@H]3CO2
- Ki [6]: 8500 nM
- Ki [8]: 11200 nM
- Ki [9]: 3880 nM
- Ki [10]: 4190 nM
- D [27]: 11%
- D [14]: 0%
- D [28]: 0%
- D [29]: 0%
- ED50 [17]: inactive
- ED50 [18]: inactive
- SDL [20]: 27%
- D [30]: 0%

SMILES: COc1ccc2c3c1C[C@H](N(C)C)C[C@@H]3CO2
- Ki [25]: 38000 nM
- Ki [9]: 967 nM
- K 0.5 [1]: 953 nM
- K 0.5 [2]: 913 nM
- K 0.5 [3]: 1100 nM
- K 0.5 [4]: 846 nM
- K 0.5 [5]: 654 nM

SMILES: CCCN(CCC)[C@H]1Cc2c(OC)ccc3c2[C@@H](CO3)C1
- Ki [25]: 144000 nM
- Ki [9]: 644 nM

SMILES: CN1[C@@H]2CC[C@H]1C[C@@H](OC(=O)C(CO)c1ccccc1)C2 (some centres not stated)
- K 0.5 [1]: 1.8 nM
- K 0.5 [2]: 0.5 nM
- K 0.5 [3]: 0.7 nM
- K 0.5 [4]: 0.6 nM
- K 0.5 [5]: 0.6 nM
